Structures can show the parent of a compound that is named as a salt.
Molecular target: ATM (Homo sapiens (Human), UniProt Q13315)
Experiment: ATM in Cell Western Assay (pKAP1 in etoposide-treated MCF-7 cells)
Format: cell-based
Details: pKAP1 in etoposide-treated MCF-7 cells
Outline: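 After paraformaldehyde fixation and Triton X-100 permeabilization, immunostained plates were read by infrared scanning (ODYSSEY CLx). Compound was given as 10 doses, 3-fold dilutions from a 1 μM final top concentration.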

Sequence of ATM (Q13315 whole entry): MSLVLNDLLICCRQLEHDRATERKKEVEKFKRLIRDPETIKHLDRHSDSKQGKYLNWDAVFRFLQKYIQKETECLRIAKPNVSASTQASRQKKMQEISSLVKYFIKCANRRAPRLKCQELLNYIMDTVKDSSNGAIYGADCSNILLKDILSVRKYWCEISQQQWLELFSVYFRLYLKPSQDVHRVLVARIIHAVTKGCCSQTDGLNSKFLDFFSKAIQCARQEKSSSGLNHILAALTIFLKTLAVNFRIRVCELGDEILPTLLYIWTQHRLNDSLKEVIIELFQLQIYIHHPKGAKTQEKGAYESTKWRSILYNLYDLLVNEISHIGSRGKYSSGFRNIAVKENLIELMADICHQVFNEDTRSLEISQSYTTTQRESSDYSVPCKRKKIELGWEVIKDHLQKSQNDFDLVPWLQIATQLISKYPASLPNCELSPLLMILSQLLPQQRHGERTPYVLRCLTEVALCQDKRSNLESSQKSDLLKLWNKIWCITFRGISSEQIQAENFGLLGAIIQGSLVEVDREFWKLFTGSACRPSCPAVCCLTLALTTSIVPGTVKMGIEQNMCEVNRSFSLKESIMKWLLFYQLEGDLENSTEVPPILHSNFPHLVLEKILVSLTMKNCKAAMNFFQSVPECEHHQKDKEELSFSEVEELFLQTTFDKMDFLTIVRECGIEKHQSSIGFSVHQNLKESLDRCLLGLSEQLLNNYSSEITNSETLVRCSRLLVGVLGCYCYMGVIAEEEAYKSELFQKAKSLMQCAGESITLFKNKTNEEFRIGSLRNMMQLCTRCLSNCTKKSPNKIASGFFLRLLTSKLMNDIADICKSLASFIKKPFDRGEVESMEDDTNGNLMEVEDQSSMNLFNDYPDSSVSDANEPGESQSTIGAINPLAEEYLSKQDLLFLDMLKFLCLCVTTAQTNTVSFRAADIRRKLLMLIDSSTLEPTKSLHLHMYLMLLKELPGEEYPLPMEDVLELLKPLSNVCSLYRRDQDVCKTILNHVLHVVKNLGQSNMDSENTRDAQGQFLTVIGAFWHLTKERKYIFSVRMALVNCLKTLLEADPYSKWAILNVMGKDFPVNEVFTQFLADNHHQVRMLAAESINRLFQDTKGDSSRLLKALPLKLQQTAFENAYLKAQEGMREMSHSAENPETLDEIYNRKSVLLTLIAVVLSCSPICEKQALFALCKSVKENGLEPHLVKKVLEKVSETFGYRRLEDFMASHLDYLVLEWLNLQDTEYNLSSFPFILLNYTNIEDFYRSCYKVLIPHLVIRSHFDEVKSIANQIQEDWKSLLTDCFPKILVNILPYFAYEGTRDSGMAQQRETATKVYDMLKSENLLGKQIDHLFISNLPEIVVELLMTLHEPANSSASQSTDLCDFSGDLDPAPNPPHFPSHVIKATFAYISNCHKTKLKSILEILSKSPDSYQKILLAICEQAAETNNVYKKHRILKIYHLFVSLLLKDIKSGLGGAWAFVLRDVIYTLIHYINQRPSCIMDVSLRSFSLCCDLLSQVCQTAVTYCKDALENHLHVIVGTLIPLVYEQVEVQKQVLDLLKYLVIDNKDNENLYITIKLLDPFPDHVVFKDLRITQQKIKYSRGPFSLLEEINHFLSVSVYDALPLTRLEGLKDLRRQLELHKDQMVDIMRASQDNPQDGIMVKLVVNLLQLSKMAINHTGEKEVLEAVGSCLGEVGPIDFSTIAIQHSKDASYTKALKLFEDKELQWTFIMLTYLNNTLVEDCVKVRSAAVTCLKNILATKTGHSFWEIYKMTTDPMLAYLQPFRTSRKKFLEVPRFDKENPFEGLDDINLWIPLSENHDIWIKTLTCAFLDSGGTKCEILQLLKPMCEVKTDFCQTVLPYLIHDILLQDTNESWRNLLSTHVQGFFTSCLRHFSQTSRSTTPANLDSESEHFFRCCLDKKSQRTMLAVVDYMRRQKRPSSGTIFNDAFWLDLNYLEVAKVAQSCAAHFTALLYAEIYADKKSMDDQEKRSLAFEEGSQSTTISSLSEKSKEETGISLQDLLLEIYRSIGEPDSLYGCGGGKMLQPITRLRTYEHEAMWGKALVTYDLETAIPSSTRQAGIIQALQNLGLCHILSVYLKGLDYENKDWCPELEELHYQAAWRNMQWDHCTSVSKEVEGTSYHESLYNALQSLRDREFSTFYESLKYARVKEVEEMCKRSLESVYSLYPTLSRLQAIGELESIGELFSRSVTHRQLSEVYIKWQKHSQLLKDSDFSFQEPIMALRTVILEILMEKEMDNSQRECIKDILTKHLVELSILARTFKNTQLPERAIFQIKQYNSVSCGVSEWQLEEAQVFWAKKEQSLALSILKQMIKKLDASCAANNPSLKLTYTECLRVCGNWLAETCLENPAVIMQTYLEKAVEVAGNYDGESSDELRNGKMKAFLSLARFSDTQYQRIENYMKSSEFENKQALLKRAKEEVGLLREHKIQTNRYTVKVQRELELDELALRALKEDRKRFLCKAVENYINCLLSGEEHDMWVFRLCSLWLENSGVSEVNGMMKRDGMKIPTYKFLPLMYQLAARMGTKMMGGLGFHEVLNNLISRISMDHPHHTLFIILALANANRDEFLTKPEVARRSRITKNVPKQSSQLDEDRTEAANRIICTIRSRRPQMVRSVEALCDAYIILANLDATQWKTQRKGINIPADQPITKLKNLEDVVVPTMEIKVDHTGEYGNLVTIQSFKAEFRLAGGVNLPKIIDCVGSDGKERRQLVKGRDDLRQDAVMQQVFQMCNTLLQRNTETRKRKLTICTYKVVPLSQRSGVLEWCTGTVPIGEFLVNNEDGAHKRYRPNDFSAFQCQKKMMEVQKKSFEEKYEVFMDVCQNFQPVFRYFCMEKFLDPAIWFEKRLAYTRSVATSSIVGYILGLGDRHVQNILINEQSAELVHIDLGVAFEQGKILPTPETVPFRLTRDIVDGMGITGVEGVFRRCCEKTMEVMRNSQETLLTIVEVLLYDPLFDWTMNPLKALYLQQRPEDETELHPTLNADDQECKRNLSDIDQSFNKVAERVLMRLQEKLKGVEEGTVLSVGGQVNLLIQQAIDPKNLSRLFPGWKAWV

`CC(C)NCCOc1ncc(-c2cc3c4c(cnc3cc2F)N(C)C(=O)C42CN(Cc3ccccc3)C2)cc1NS(C)(=O)=O` [Example 495, N-(5-(1-Benzyl-7-fluoro-3′-methyl-2′-oxo-2′,3′-dihydrospiro[azetidine-3,1′-pyrrolo[2,3-c]quinolin]-8′-yl)-2-(2-(isopropylamino)ethoxy)pyridin-3-yl)methanesulfonamide] and `CC(C)NCCOc1ncc(-c2cc3c4c(cnc3cc2F)N(C)C(=O)C42CN(C3CC3)C2)cc1NS(C)(=O)=O` [Example 496, N-(5-(1-Cyclopropyl-7′-fluoro-3′-methyl-2′-oxo-2′,3′-dihydrospiro[azetidine-3,1′-pyrrolo[2,3-c]quinolin]-8′-yl)-2-(2-(isopropylamino)ethoxy)pyridin-3-yl)methanesulfonamide] fall in the same range of IC50: 0.001 to 0.1 µM for the first, 0.001 to 0.1 µM for the second.

`CC(C)NCCOc1ncc(-c2cc3c4c(cnc3cc2F)N(C)C(=O)C42CN(C3CCCCC3)C2)cc1NS(C)(=O)=O` [Example 499, N-(5-(1-Cyclohexyl-7′-fluoro-3′-methyl-2′-oxo-2′,3′-dihydrospiro[azetidine-3,1′-pyrrolo[2,3-c]quinolin]-8′-yl)-2-(2-(isopropylamino)ethoxy)pyridin-3-yl)methanesulfonamide] and `CC(C)NCCOc1ncc(-c2cc3c4c(cnc3cc2F)N(C)C(=O)C42CN(C3CCOCC3)C2)cc1NS(C)(=O)=O` [Example 500, N-(5-(7′-Fluoro-3′-methyl-2′-oxo-1-(tetrahydro-2H-pyran-4-yl)-2′,3′-dihydrospiro[azetidine-3,1′-pyrrolo[2,3-c]quinolin]-8′-yl)-2-(2-(isopropylamino)ethoxy)pyridin-3-yl)methanesulfonamide hydrochloride] fall in the same range of IC50: 0.001 to 0.1 µM for the first, 0.001 to 0.1 µM for the second.

`CC(C)NCCOc1ncc(-c2cc3c4c(cnc3cc2F)N(C)C(=O)C42CN(C3CCNCC3)C2)cc1NS(C)(=O)=O` [Example 501, N-(5-(7′-Fluoro-3′-methyl-2′-oxo-1-(piperidin-4-yl)-2′,3′-dihydrospiro[azetidine-3,1′-pyrrolo[2,3-c]quinolin]-8′-yl)-2-(2-(isopropylamino)ethoxy)pyridin-3-yl)methanesulfonamide] and `CC(C)NCCOc1ncc(-c2cc3c4c(cnc3cc2F)N(C)C(=O)C42CN(C3CCN(C)CC3)C2)cc1NS(C)(=O)=O` [Example 502, N-(5-(7′-Fluoro-3′-methyl-1-(1-methylpiperidin-4-yl)-2′-oxo-2′,3′-dihydrospiro[azetidine-3,1′-pyrrolo[2,3-c]quinolin]-8′-yl)-2-(2-(isopropylamino)ethoxy)pyridin-3-yl)methanesulfonamide] cannot be ordered by IC50: over 0.1 µM for the first, over 0.1 µM for the second.

`CC(=O)N1CCC(N2CC3(C2)C(=O)N(C)c2cnc4cc(F)c(-c5cnc(OCCNC(C)C)c(NS(C)(=O)=O)c5)cc4c23)CC1` [Example 503, N-(5-(1-(1-Acetylpiperidin-4-yl)-7′-fluoro-3′-methyl-2′-oxo-2′,3′-dihydrospiro[azetidine-3,1′-pyrrolo[2,3-c]quinolin]-8′-yl)-2-(2-(isopropylamino)ethoxy)pyridin-3-yl)methanesulfonamide] and `CC(C)NCCOc1ncc(-c2cc3c4c(cnc3cc2F)N(C)C(=O)C42CN([C@H]3CC[C@@H](O)CC3)C2)cc1NS(C)(=O)=O` [Example 504, N-(5-(7′-Fluoro-1-(cis-4-hydroxycyclohexyl)-3′-methyl-2′-oxo-2′,3′-dihydrospiro[azetidine-3,1′-pyrrolo[2,3-c]quinolin]-8′-yl)-2-(2-(isopropylamino)ethoxy)pyridin-3-yl)methanesulfonamide] cannot be ordered by IC50: over 0.1 µM for the first, over 0.1 µM for the second.

In the case of `CC(C)NCCOc1ncc(-c2cc3c4c(cnc3cc2F)N(C)C(=O)C42CN([C@H]3CC[C@H](O)CC3)C2)cc1NS(C)(=O)=O` [Example 505, N-(5-(7′-Fluoro-1-(trans-4-hydroxycyclohexyl)-3′-methyl-2′-oxo-2′,3′-dihydrospiro[azetidine-3,1′-pyrrolo[2,3-c]quinolin]-8′-yl)-2-(2-(isopropylamino)ethoxy)pyridin-3-yl)methanesulfonamide], the IC50 is reported as over 0.1 µM.

— patent publication US12187742B2 (XRAD Therapeutics, Inc., priority 2018, dated 2025)
